Laboratory results taken from patent publication US20250011265A1, “COMPOSITIONS AND METHODS FOR PRODUCTION OF ANTIMICROBIAL AGENTS FROM BIO-RENEWABLE FEEDSTOCKS” (SOLUGEN, INC., priority 2022, published 2025).
Values after ≈ are worked out from the molar mass of the structure shown.

Legend:
[1] = test system: General Wild Strain Bacteria (Pseudomonas aeruginosa and Enterobacter aggolomerans); experiment: Microtiter MIC study, general aerobic bacteria; type: cell-based
Description: (§1) All three different heat incubated GDA samples were tested as antimicrobial agents with several different industrially relevant bacteria. The General Aerobic Bacteria isolated and used for this testing were identified as Pseudomonas aeruginosa and Enterobacter aggolomerans. Wild strain Sulfate Reducing Bacteria and Acid Producing Bacteria isolated from the produced fluids was also used. They were placed in a microtiter plate, where a high throughput test can be performed to determine MIC (minimum inhibitor concentration). Samples were tested at the following doses (1000, 500, 250, 125, 62.5, 31.2, 15.6, 7.8, 3.9, and 1.95 ppm) and concentration was calculated based on the initial GDA concentration (15 w/v %).
(§2) The antimicrobial testing results shown in FIG. 13 summarizes the MIC of each sample for different bacteria. The MIC is determined after 24 hours of incubation for the bacterial plates.

[2] = test system: SRB (Sulfate Reducing Bacteria); experiment: Microtiter MIC study, sulfate reducing bacteria; type: cell-based, Wild strain Sulfate Reducing Bacteria; settings: 24 hours incubation; concentration based on initial GDA concentration (15 w/v %)
Description: as §1, §2

[3] = test system: APB (Acid Producing Bacteria); experiment: Microtiter MIC study, acid producing bacteria; type: cell-based; settings: 24 hours incubation; concentration based on initial GDA concentration (15 w/v %)
Description: as §1, §2

Structure (SMILES)	antimicrobial activity ([1]; inferred from Sample C result, all three bacteria tested)	MIC ([1]; Pseudomonas aeruginosa, 24 hours incubation, concentration based on initial GDA concentration (15 w/v %)) [µg/mL]	MIC, SRB (Sulfate Reducing Bacteria) [2] [ppm]	MIC [3] [µg/mL]
Oc1ccc(O)c(O)c1O (single isomer, unassigned) [1,2,3,4-tetrahydroxybenzene]	good antimicrobial activity	–	–	–
O=CCCCC=O [Glutaraldehyde - 50%, Glutaraldehyde]	–	1000 (≈ 9.99 mM)	500	500 (≈ 4.99 mM)
